Test results published in ChEMBL document CHEMBL6109117, “Synthesis of an RBM39 Degrader That Downregulates CEP192 and Induces Disorganized Spindle Structures” (J Med Chem, 2025).
Active and inactive are the calls of the source. No cut-off for these calls is given here.

Key:
HCT-116 [1] = experiment: Antiproliferative activity against human HCT-116 cells incubated for 4 days by CCK8 assay; assay type: functional, cell-based; settings: HCT-116, 96 h
HCT-116 [2] = experiment: Induction of RBM39 degradation in human HCT-116 cells at 0.1 to 1 uM incubated for 24 hrs by Western blot analysis; assay type: cell-based; settings: dose 0.1-1 µM
HCT-116 [3] = experiment: Induction of RBM39 degradation in human HCT-116 cells assessed as fold change at 0.1 uM incubated for 24 hrs by Western blot analysis relative to control; assay type: cell-based
HCT-116 [4] = experiment: Induction of RBM39 degradation in human HCT-116 cells assessed as fold change at 1 uM incubated for 24 hrs by Western blot analysis relative to control; assay type: cell-based
HCT-116 [5] = experiment: Induction of RBM39 degradation in human HCT-116 cells at 3 to 300 nM incubated for 24 hrs in presence of MLN4924 by Western blot analysis; assay type: cell-based; settings: dose 3-300 nM
HCT-116 [6] = experiment: Induction of RBM39 degradation in human HCT-116 cells at 0.05 to 5 uM incubated for 24 hrs in presence of MG132 by Western blot analysis; assay type: cell-based; settings: dose 0.05-5 µM
HCT-116 [7] = experiment: Induction of RBM39 degradation in human HCT-116 cells at 1 uM incubated for 24 hrs by mass spectrometry-based proteomic analysis; assay type: cell-based
[8] = Competitive inhibition of N-terminal His-tagged RBM39 (146 to 326 residues)/DCAF15 (2 to 600 residues)/full-length DDB1 (1 to 1140 residues)(unknown origin) incubated for 1 hr in presence of (R)-N-(3-(N-(3-Cyano-4-methyl-1H-indol-7-yl)sulfamoyl)phenyl)-2-(2-(((6-(3-(3',6'-dihydroxy-3-oxo-3H-spiro[isobenzofuran-1,9'-xanthen]-5-yl)thioureido)hexyl)amino)methyl)pyrrolidin-1-yl)-2-oxoacetamide by fluorescence polarization assay; set-up: species or system Homo sapiens
HCT-116 [9] = experiment: Downregulation of CEP192 expression in human HCT-116 cells incubated for 24 hrs by Western blot analysis; assay type: functional, cell-based
HCT-116 [10] = experiment: Downregulation of CENPI expression in human HCT-116 cells incubated for 24 hrs by Western blot analysis; assay type: functional, cell-based
HCT-116 [11] = experiment: Downregulation of KNL1 expression in human HCT-116 cells incubated for 24 hrs by Western blot analysis; assay type: functional, cell-based
HCT-116 [12] = experiment: Downregulation of RTTN expression in human HCT-116 cells incubated for 24 hrs by Western blot analysis; assay type: functional, cell-based
HCT-116 [13] = experiment: Induction of spliceosome function impairment in human HCT-116 cells assessed as decrease in ZNF207 exon8-exon10 RNA level at 1 to 10 uM incubated for 12 hrs by qRT-PCR analysis; assay type: functional, cell-based; settings: dose 1-10 µM
MV4-11 [14] = experiment: Induction of spliceosome function impairment in human MV4-11 cells assessed as increase in CUL4A RI transcript incubated for 12 hrs by qRT-PCR analysis; assay type: functional, cell-based; settings: dose 1-10 µM
MV4-11 [15] = experiment: Induction of spliceosome function impairment in human MV4-11 cells assessed as decrease in NCKAP1L transcript at 1 to 10 uM incubated for 12 hrs by qRT-PCR analysis; assay type: functional, cell-based; settings: dose 1-10 µM
MV4-11 [16] = experiment: Induction of spliceosome function impairment in human MV4-11 cells assessed as decrease in ZNF207 transcript at 1 to 10 uM incubated for 12 hrs by qRT-PCR analysis; assay type: functional, cell-based; settings: dose 1-10 µM
K562 [17] = experiment: Induction of spliceosome function impairment in human K562 cells assessed as decrease in NCKAP1L transcript at 1 to 10 uM incubated for 12 hrs by qRT-PCR analysis; assay type: functional, cell-based; settings: dose 1-10 µM
K562 [18] = experiment: Induction of spliceosome function impairment in human K562 cells assessed as decrease in ZNF207 transcript at 1 to 10 uM incubated for 12 hrs by qRT-PCR analysis; assay type: functional, cell-based; settings: dose 1-10 µM
HCT-116 [19] = experiment: Effect on RNA splicing in human HCT-116 cells assessed as CEP192 gene exon splicing at 2 uM incubated for 12 hrs by RNA-seq analysis; assay type: functional, cell-based
HCT-116 [20] = experiment: Effect on RNA splicing in human HCT-116 cells assessed as ESPL1 gene exon splicing at 2 uM incubated for 12 hrs by RNA-seq analysis; assay type: functional, cell-based
HCT-116 [21] = experiment: Effect on RNA splicing in human HCT-116 cells assessed as KNL1 gene exon splicing at 2 uM incubated for 12 hrs by RNA-seq analysis; assay type: functional, cell-based
HCT-116 [22] = experiment: Effect on RNA splicing in human HCT-116 cells assessed as RTTN gene exon splicing at 2 uM incubated for 12 hrs by RNA-seq analysis; assay type: functional, cell-based
HCT-116 [23] = experiment: Effect on RNA splicing in human HCT-116 cells assessed as MCL-1 gene alternative splicing at 2 uM incubated for 12 hrs by RNA-seq analysis; assay type: functional, cell-based
[24] = Effect on RNA splicing in human HCT-116 cells assessed as number of mutually exclusive exons at 2 uM incubated for 12 hrs by RNA-seq analysis; assay type: functional
K562 [25] = experiment: Effect on RNA splicing in human K562 cells assessed as CEP192 gene skipping exon at 2 uM incubated for 12 hrs by RNA-seq analysis; assay type: functional, cell-based
K562 [26] = experiment: Effect on RNA splicing in human K562 cells assessed as ESPL1 gene skipping exon at 2 uM incubated for 12 hrs by RNA-seq analysis; assay type: functional, cell-based
K562 [27] = experiment: Effect on RNA splicing in human K562 cells assessed as KNL1 gene skipping exon at 2 uM incubated for 12 hrs by RNA-seq analysis; assay type: functional, cell-based
K562 [28] = experiment: Effect on RNA splicing in human K562 cells assessed as RTTN gene skipping exon at 2 uM incubated for 12 hrs by RNA-seq analysis; assay type: functional, cell-based
K562 [29] = experiment: Effect on RNA splicing in human K562 cells assessed as CEP192 gene alternative 3' splicing site at 2 uM incubated for 12 hrs by RNA-seq analysis; assay type: functional, cell-based
K562 [30] = experiment: Effect on RNA splicing in human K562 cells assessed as ESPL1 gene alternative 5' splicing site at 2 uM incubated for 12 hrs by RNA-seq analysis; assay type: functional, cell-based
K562 [31] = experiment: Effect on RNA splicing in human K562 cells assessed as CEP192 gene retention of introns up to 10 uM by PCR analysis; assay type: functional, cell-based; settings: time 1-24 hrs
HCT-116 [32] = experiment: Induction of cell cycle arrest in human HCT-116 cells assessed as accumulation at G2/M phase at 0.1 to 5 uM incubated for 48 hrs by PI staining based flow cytometry; assay type: functional; settings: dose 0.1-5 µM
HCT-116 [33] = experiment: Induction of cell cycle arrest in human HCT-116 cells assessed as accumulation at G2/M phase at 1 uM by PI staining based flow cytometry; assay type: functional
HCT-116 [34] = experiment: Induction of apoptosis in human HCT-116 cells at 0.1 to 5 uM incubated for 48 hrs by Annexin V-FITC/PI staining based flow cytometry; assay type: functional, cell-based; settings: dose 0.1-5 µM
HCT-116 [35] = experiment: Induction of apoptosis in human HCT-116 cells assessed as change in caspase-3 level at 0.1 to 5 uM incubated for 48 hrs by Western blot analysis; assay type: functional, cell-based; settings: dose 0.1-5 µM
HCT-116 [36] = experiment: Induction of apoptosis in human HCT-116 cells assessed as change in PARP level at 0.1 to 5 uM incubated for 48 hrs by Western blot analysis; assay type: functional, cell-based; settings: dose 0.1-5 µM
HCT-116 [37] = experiment: Effect on mitosis in human HCT-116 cells assessed as disorganized spindle phenotype at 1 uM incubated for 48 hrs by immunofluorescence based analysis; assay type: functional, cell-based
[38] = Effect on mitosis in human HCT-116 cells assessed as defective mitotic cells at 1 uM incubated for 48 hrs by immunofluorescence based analysis relative to control; assay type: functional

| Structure (SMILES) | IC50 (HCT-116 [1]) [µM] | Activity (HCT-116 [2]) | fold change (FC) (HCT-116 [3]) | fold change (FC) (HCT-116 [4]) | Activity (HCT-116 [5]) | Activity (HCT-116 [6]) | Activity (HCT-116 [7]) | IC50 [8] [µM] | Activity (HCT-116 [9]) | Activity (HCT-116 [10]) | Activity (HCT-116 [11]) | Activity (HCT-116 [12]) | Activity (HCT-116 [13]) | Activity (MV4-11 [14]) | Activity (MV4-11 [15]) | Activity (MV4-11 [16]) | Activity (K562 [17]) | Activity (K562 [18]) | Activity (HCT-116 [19]) | Activity (HCT-116 [20]) | other results |
| --- | --- | --- | --- | --- | --- | --- | --- | --- | --- | --- | --- | --- | --- | --- | --- | --- | --- | --- | --- | --- | --- |
| Cc1ccc(NS(=O)(=O)c2cccc(NC(=O)C(=O)N3CCC[C@@H]3CO)c2)c2[nH]cc(C#N)c12 | 0.0367 | Active | 0.61 | 0.21 | inactive | inactive | Active | 0.594 | Dose-dependent-effect | Dose-dependent-effect | Dose-dependent-effect | Dose-dependent-effect | Active | Active | Active | Active | Active | Active | Active | Active | Activity (HCT-116 [21]): Active; Activity (HCT-116 [22]): Active; Activity (HCT-116 [23]): No effect; Activity [24]: 515; Activity (K562 [25]): Active; Activity (K562 [26]): Active; Activity (K562 [27]): Active; Activity (K562 [28]): Active; Activity (K562 [29]): Active; Activity (K562 [30]): Active; Activity (K562 [31]): Time-dependent-effect; Observed Retention Of Introns Between Exons 27 And 28; Activity (HCT-116 [32]): Active; Activity (HCT-116 [33]): Time-dependent-effect; Activity (HCT-116 [34]): inactive; Activity (HCT-116 [35]): inactive; Activity (HCT-116 [36]): inactive; Activity (HCT-116 [37]): Active; Disorganized Spindle Phenotype Was Characterized By Random Microtubule Distribution Surrounding Condensed And Undivided Chromosomes; Activity [38]: 21.8% |
| NS(=O)(=O)c1ccc(S(=O)(=O)Nc2cccc3c(Cl)c[nH]c23)cc1 [INDISULAM] | 0.0968 | Active | 0.59 | 0.16 | inactive | inactive | Active | 0.417 | Dose-dependent-effect | Dose-dependent-effect | Dose-dependent-effect | Dose-dependent-effect | Active | Active | Active | Active | Active | Active | Active | Active | Activity (HCT-116 [21]): Active; Activity (HCT-116 [22]): Active; Activity (HCT-116 [23]): No effect; Activity [24]: 667; Activity (K562 [25]): Active; Activity (K562 [26]): Active; Activity (K562 [27]): Active; Activity (K562 [28]): Active; Activity (K562 [29]): Active; Activity (K562 [30]): Active; Activity (K562 [31]): Time-dependent-effect; Observed Retention Of Introns Between Exons 27 And 28; Activity (HCT-116 [32]): Active; Activity (HCT-116 [33]): Time-dependent-effect; Activity (HCT-116 [34]): inactive; Activity (HCT-116 [35]): inactive; Activity (HCT-116 [36]): inactive; Activity (HCT-116 [37]): Active; Disorganized Spindle Phenotype Was Characterized By Random Microtubule Distribution Surrounding Condensed And Undivided Chromosomes; Activity [38]: 18.3% |
